Data: patent US20110166195A1, “METHOD FOR THE FORMATION OF MEGAMITOCHONDRIA” (priority 2008, published 2011)
“Also recorded” adds a separate entry of the source. Counter-ions that a name gives are not always drawn.

Tests used:
[1] = system: 143B.TK−K7gm cells with megamitochondria; assay: Back-formation of megamitochondria after exchange of acidic medium in drug-treated cells; assay type: cell-based, Human; details: fresh medium also with drug; for back-formation of megamitochondria (mitochondrial morphology after medium exchange): 10 μM CCCP, 10 μM valinomycin or 1 μM nigericin for 30 minutes, analysed 60 minutes after medium exchange; for back-formation of megamitochondria: 6 μM nocodazol or 2.4 mM cytochalasin B for 3 hours, observed one and three hours after medium exchange
Protocol: (C) 143B.TK^−K7gm cells with megamitochondria were incubated with 10 μM CCCP (C A1, B1), 10 μM valinomycin (C A2, B2) or 1 μM nigericin (C A3, B3) for 30 minutes. 60 Minutes after medium exchange (ME) the mitochondrial morphology was analysed. Untreated controls are shown in A A4 and C A4, B4. Calibration marks correspond to 10 μm.
(B) The influence of the actin cytoskeleton on the back-formation of megamitochondria in 143B.TK^−K7gm cells was tested by treatment with 2.4 μM cytochalasin B (A1, A2, C1, D1) or an an equivalent amount of solvent as control (B1, B2, C2, D2) for 3 hours. Mitochondrial morphology was analyzed one (C1, C2) or three hours (D1, D2) after medium exchange. Staining of action cytoskeleton was carried out by Alexa Fluor […] phalloidin in fixed cells (A2, B2).
143B.TK^−K7gm cells with megamitochondria were incubated for 3 hours with 6 μM nocodazol (A1, A2, C1, D1) or as control with an equivalent amount solvent (B1, B2, C2, D2). The analysis of mitochondrial changes in structure were carried out 1 hour (C1, C2) or 3 hours (D1, D2) after the exchange of acidic medium. Arrow heads indicate abnormal ring shaped mitochondrial structures persisting for at least 3 hours. Calibration bars correspond to 10 μm.
(§1) Drugs (final concentrations 6-10 μM nocodazol, 2.4-4 μM cytochalasin B, 10 μM CCCP, 10 μM valinomycin and 1 μM nigericin) were added to standard culture medium at different stages of megamitochondria development.
(§2) To avoid a cross talk in excitation of multiple stained compounds always a sequential scanning mode was used in confocal microscopy.
To investigate the influence of the different chemicals on the back-formation of megamitochondria the cells were incubated with indicated concentrations of CCCP, valinomycin and nigericin for 30 minutes (FIG. 4C).
The influence of tubulin and actin cytoskeleton inhibition on back-formation of megamitochondria was performed with 143B.TK^− K7 gm cells with megamitochondria 3 hours after incubating the cells with 6 μM nocodazol or […] cytochalasin B. After changing the used acidic medium and its replacement by fresh medium also completed by the drugs structural changes of mitochondria were observed one hour and three hours later.

143B.TK−K7 cells = assay: Mitochondrial membrane potential by JC-1 staining (confocal microscopy); assay type: cell-based, Human; details: 10 μM CCCP for 30 minutes before JC-1; 24 and 62 hours cultivation time
Protocol: Documentation at 24 hours (A1-A3, B1-B3) and 62 hours (C1-C3, D1-D3) cultivation time by JC-1-staining. The red fluorescence of J-aggregates (A1, B1, C1, D1) as well as the green monomer form (A2, B2, C2, D2) were analysed simultaneously by excitation wavelength of 488 nm. Images A3, B3, C3, D3 show overlays. Calibration bars correspond to 10 μm.
To measure differences in mitochondrial membrane potential between the various stages of megamitochondria formation and control cells the dual emission of the potentiometric dye JC-1 was observed. The cells either were incubated directly with 3 μM JC-1 diluted in the standard culture medium and filtered once with 0.2 μm syringe filter for 30 min at 37° C. or first treated with CCCP (final concentration 10 μM) for 30 min for the comparison of cells without membrane potential. The cells were viewed in vivo with the inverse confocal laser scanning microscope (simultaneous excitation of red and green fluorescence by 488 nm wavelength) to observe local differences in the mitochondrial membrane potential.
To determine the mitochondrial membrane potential during the formation of megamitochondria 143B.TK^−K7 cells were either directly stained with JC-1 […] or incubated with […] CCCP for 30 minutes before. […]

143B.TK−K7gm cells [2] = assay: Formation of megamitochondria in drug-treated cells (fluorescence/confocal microscopy of EGFP-Mito); assay type: cell-based, Human
Protocol: (A) 24 h after seeding 143B.TK^−K7gm cells were incubated with 10 μM CCCP (A A1), 10 μM valinomycin (A A2, B) or 1 μM nigericin (A A3) for 18 h.
(§3) (A) 143B.TK^−K7gm cells stained with EGFP-Mito were treated with 4 μM cytochalasin B (A1, A2, B1, B2) at different cultivation times for 9-15 hours or an equivalent amount of solvent as control (A3, A4, B3, B4). Staining of actin cytoskeleton was achieved by Alexa Fluor […] phalloidin in fixed cells (A2, B2, A4, B4). Arrow heads indicate round areas in the cytoplasm observable by actin staining after 62 hours cultivation time.
143B.TK^−K7gm cells were treated with 10 μM nocodazol at different cultivation times for 9-15 hours (A1, A2, B1, B2) or as control with an equivalent amount solvent (A3, A4, B3, B4). The morphology of mitochondria is shown by in vivo EGFP-Mito-staining in the images A1, B1, C1, A3, B3, C3. The staining of tubulin cytoskeleton was performed by an antibody against alpha-tubulin and a Cy3-coupled secondary antibody in fixed cells (A2, B2, A4, B4). Calibration bars correspond to 10 μm.
as §1, §2
To investigate the influence of the mitochondrial membrane potential on the formation and back formation of the megamitochondria 143B.TK^−K7gm cells were incubated with 10 μM CCCP (H^+ ionophore), 10 μM valinomycin (K^+ selective ionophore) and 1 μM nigericin (selective electron neutral K^+/H^+ exchange) (FIG. 4).
(§4) To observe the influence of the tubulin or actin cytoskeleton, respectively, on the formation of megamitochondria 143B.TK^−K7 gm cells were incubated with 10 μM nocodazol or […] cytochalasin B for 9-15 hours.

143B.TK−gm cells = assay: Induction of megamitochondria by changes of culture medium; assay type: cell-based, Human; details: medium with HCl or lactic acid (pH 6.7-5.3) or 30-180 mM sodium lactate (pH 7.4 maintained); one hour
Protocol: (§5) The induction of megamitochondria formation was done by the transfer of acidic medium from 143B.TK^− K7 ρ^0 cells and by an artificial acidification of fresh medium with lactic acid, pH 6.0-6.3. Additional changes of culture medium were performed by an acidification of the medium with HCl, addition of 30-180 mM sodium lactate and 1.3-2.0 mM NaOH.
(§6) To test whether megamitochondria can be induced by extrinsic changes of pH value or lactic acid concentration in the culture medium 143B.TK^−K7gm, 143B.TK^−gm and HeLa were incubated with medium complemented with HCl and lactic acid, respectively (pH 6.7-5.3). Additionally, the influence of high concentrations of sodium lactate (30-180 mM) on the megamitochondria formation was determined without changing the pH. A pH value of 6.7-6.8 and a lactate concentration of 30 mM corresponds to the measured values in the analysed cultivation medium of 143B.TK^−K7 cells. Incubation of cells was carried out for one hour with subsequent analyses of mitochondrial morphology in vivo.

[3] = system: 143B.TK−K7gm cells with megamitochondria; assay: Back-formation of megamitochondria by changes of culture medium; assay type: cell-based, Human; details: one hour
Protocol: Similar experiments were carried out to investigate the back-formation of megamitochondria (FIG. 9). To this end, 143B.TK^−K7 gm cells with megamitochondria were incubated in medium complemented with different additions. Changes of pH value were reached by the addition of 0.04-0.2 mM NaOH into the used culture medium as well as by the addition of HCl and lactic acid, respectively, of values 7.0-5.6 in fresh culture medium. Moreover, the influence of high concentrations of sodium lactate on the back-formation of megamitochondria was analysed by adding 20-210 mM sodium lactate, pH 7.4 into fresh medium without changing the pH value. Treatment of cells with different media was performed for one hour, thereafter the mitochondrial morphology was analysed by fluorescence microscopy.

143B.TK−K7gm cells [4] = assay: Induction of megamitochondria by changes of culture medium; assay type: cell-based, Human; details: medium with HCl or lactic acid (pH 6.7-5.3) or 30-180 mM sodium lactate (pH 7.4 maintained); one hour
Protocol: as §5, §6

HeLa cells = assay: as above; assay type: cell-based; details: medium with HCl or lactic acid (pH 6.7-5.3) or 30-180 mM sodium lactate (pH 7.4 maintained); one hour
Protocol: as §5, §6

actin cytoskeleton = assay: Staining of actin cytoskeleton by phalloidin in fixed cells; assay type: cell-based, Human; details: 4 mM cytochalasin B for 9-15 hours, 143B.TK−K7gm cells
Protocol: as §3
For detection of the actin cytoskeleton cells on cover slips treated as indicated were fixed with 3.7% formaldehyde in PBS for 10 min at room temperature and after three washes in PBS for 5 min permeabilized with 0.1% Triton X-100 in PBS for 5 min. After additional washing steps with PBS (5 min) cells were blocked with 1% BSA in PBS for 30 min at room temperature and incubated with 1 unit (5 μl) Alexa Fluor 546 Phalloidin in 1% BSA in PBS for 20 min at room temperature. After washing the cells three times with PBS for 7 min, the cover slips were mounted with Mowiol and analysed with the confocal microscope.
as §4

tubulin polymerisation = assay: Immunocytochemical staining of tubulin cytoskeleton with antibody against alpha-tubulin; assay type: cell-based, Human; details: 10 μM nocodazol for 9-15 hours, 143B.TK−K7gm cells
Protocol: 143B.TK^−K7gm cells were treated with 10 μM nocodazol at different cultivation times for 9-15 hours (A1, A2, B1, B2) or as control with an equivalent amount solvent (A3, A4, B3, B4). […] The staining of tubulin cytoskeleton was performed by an antibody against alpha-tubulin and a Cy3-coupled secondary antibody in fixed cells (A2, B2, A4, B4).
Cells grown on cover slips were treated as indicated, fixed with methanol (−20° C.) for 5 min and permeabilized with 0.2% Triton X-100 in PBS for 5 min at room temperature. After washing three times with PBS (5 min), the blocking reaction was performed with 100 mM glycine in PBS for 10 min following 3% BSA in PBS for 30 min at room temperature.
Subsequently cover slips were incubated with mouse anti-alpha tubulin polyclonal primary antibody diluted 1:50 in 1% BSA in PBS at 4° C. over night. After washing the cells three times with PBS (5 min), the cover slips were incubated with Cy3-conjugated goat secondary antibody in 10% goat serum in PBS for 1 h at room temperature. The cells were washed three times with PBS (7 min) prior to mounting in Mowiol and analysed by fluorescence microscopy.

[5] = 10 μM CCCP, 10 μM valinomycin or 1 μM nigericin for 18 h, 24 h after seeding
[6] = 10 μM nocodazol or 4 mM cytochalasin B for 9-15 hours

SMILES | back-formation of megamitochondria (mitochondrial morphology after medium exchange) [1] | formation of megamitochondria (143B.TK−K7gm cells [2]; [5]) | induction of megamitochondria (143B.TK−gm cells) | induction of megamitochondria (143B.TK−K7gm cells [4]) | induction of megamitochondria (HeLa cells) | also measured
N#CC(C#N)=NNc1cccc(Cl)c1 [CCCP] | comparable to the control cells | inhibited |  |  |  | mitochondrial membrane potential (JC-1 red/green fluorescence) (143B.TK−K7 cells): the red fluorescence was clearly less distinct
Cl [HCl] |  |  | not possible | not possible | not possible | back-formation of megamitochondria ([3]; fresh medium acidified with HCl, pH 6.0): did not change their form; back-formation of megamitochondria ([3]; fresh medium acidified with HCl, pH 7.0): formed back to a tubular network
[Na+].[OH-] [NaOH] |  |  |  |  |  | back-formation of megamitochondria ([3]; 1.3 mM NaOH added into the acidic medium): did not lead to the back-formation of megamitochondria; also recorded: did not lead to the back formation of megamitochondria; back-formation of megamitochondria ([3]; 2.0 mM NaOH added into the acidic medium): resulted in a change in mitochondrial morphology from spherical forms to tubules and network-like structures; also recorded: sufficient to induce the back-formation of megamitochondria
C=C1[C@@H](C)[C@H]2[C@H](Cc3ccccc3)NC(=O)[C@]23OC(=O)/C=C/[C@H](O)CCC[C@@H](C)C/C=C/[C@H]3[C@@H]1O [cytochalasin B] |  |  |  |  |  | effectiveness of drug treatment on actin cytoskeleton (phalloidin staining) (actin cytoskeleton): confirming the effectiveness of drug treatment; back-formation of megamitochondria [1]: severe influence on megamitochondria back-formation; formation of megamitochondria (143B.TK−K7gm cells [2]; [6]): prevented formation of megamitochondria
CC(O)C(=O)O (centres unmarked) [lactic acid] |  |  | led to the formation of megamitochondria | led to the formation of megamitochondria | led to the formation of megamitochondria | back-formation of megamitochondria ([3]; fresh medium acidulated with lactic acid, pH 6.8): the spherical mitochondria changed to a tubular network; back-formation of megamitochondria ([3]; fresh medium acidulated with lactic acid, pH 7.0): resulted in the back-formation of megamitochondria
CO[C@@H]1C[C@@H](C[C@H]2CC[C@H](C)[C@H]([C@@H](C)C(=O)O)O2)O[C@]2(O[C@](C)([C@H]3CC[C@@](C)([C@@H]4O[C@@H]([C@H]5O[C@@](O)(CO)[C@H](C)C[C@@H]5C)C[C@@H]4C)O3)C[C@H]2C)[C@@H]1C [nigericin] | comparable to the control cells | inhibited |  |  |  | 
COC(=O)Nc1nc2ccc(C(=O)c3cccs3)cc2[nH]1 [nocodazol] |  |  |  |  |  | back-formation of megamitochondria [1]: only minor influence on back-formation of megamitochondria; formation of megamitochondria (143B.TK−K7gm cells [2]; [6]): no influence of the tubulin cytoskeleton on the formation of megamitochondria; inhibition of tubulin polymerisation (alpha-tubulin staining) (tubulin polymerisation): Complete inhibition of tubulin polymerisation
CC(O)C(=O)[O-].[Na+] (centres unmarked) [sodium lactate] |  |  | not possible | not possible | not possible | back-formation of megamitochondria ([3]; fresh medium with 20-210 mM sodium lactate, pH 7.4): led to the back-formation of megamitochondria in all used concentrations
CC(C)[C@@H]1NC(=O)[C@H](C)OC(=O)[C@@H](C(C)C)NC(=O)[C@@H](C(C)C)OC(=O)[C@H](C(C)C)NC(=O)[C@H](C)OC(=O)[C@@H](C(C)C)NC(=O)[C@@H](C(C)C)OC(=O)[C@H](C(C)C)NC(=O)[C@H](C)OC(=O)[C@@H](C(C)C)NC(=O)[C@@H](C(C)C)OC1=O [valinomycin] | inhibited the back-formation of megamitochondria | led to the formation of megamitochondria with diameters exceeding the control cells |  |  |  | 
